Results: patent US11034666B2, “Anti-inflammatory and antitumor 2-oxothiazoles and 2-oxothiophenes compounds” (Avexxin AS, priority 2013, dated 2021)
Values joined by “and” are separate entries in the source; they are usually repeats but may differ in a detail not shown here. Equal entries are not always repeated.

Assays:
human GVIA iPLA2 = target: T1, human GVIA iPLA2 (Homo sapiens, UniProt O60733); experiment: In vitro mixed micelle assay, GVIA iPLA2; type: biochemical; settings: for inhibition at 0.091 mole fraction: mixed micelles, 0.091 mole fraction of inhibitor, Table 6, read-out: GVIA iPLA2 % Inhib
T1 sequence (O60733 1-806): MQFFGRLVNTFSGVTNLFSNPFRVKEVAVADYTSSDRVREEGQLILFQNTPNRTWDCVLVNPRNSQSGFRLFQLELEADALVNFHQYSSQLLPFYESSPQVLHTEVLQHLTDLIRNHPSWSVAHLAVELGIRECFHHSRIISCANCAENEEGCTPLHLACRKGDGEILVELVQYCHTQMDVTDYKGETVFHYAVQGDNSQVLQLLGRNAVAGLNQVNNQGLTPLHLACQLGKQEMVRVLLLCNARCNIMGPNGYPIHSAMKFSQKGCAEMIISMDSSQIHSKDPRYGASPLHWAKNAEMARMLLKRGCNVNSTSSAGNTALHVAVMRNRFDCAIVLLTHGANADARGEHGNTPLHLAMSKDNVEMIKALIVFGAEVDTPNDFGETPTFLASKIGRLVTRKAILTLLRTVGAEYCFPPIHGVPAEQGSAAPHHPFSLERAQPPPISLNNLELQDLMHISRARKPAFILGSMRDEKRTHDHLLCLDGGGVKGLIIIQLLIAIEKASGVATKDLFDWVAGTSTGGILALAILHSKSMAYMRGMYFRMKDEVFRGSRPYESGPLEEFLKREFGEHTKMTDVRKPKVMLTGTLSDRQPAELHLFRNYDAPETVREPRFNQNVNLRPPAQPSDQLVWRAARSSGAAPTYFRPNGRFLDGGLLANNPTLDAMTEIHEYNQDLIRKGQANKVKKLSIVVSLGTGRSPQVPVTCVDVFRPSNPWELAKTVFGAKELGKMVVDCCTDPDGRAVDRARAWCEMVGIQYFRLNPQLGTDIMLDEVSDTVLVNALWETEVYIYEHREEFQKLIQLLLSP
Description: (§1) At first, the percent of inhibition for each PLA2 enzyme at 0.091 mole fraction of each inhibitor was determined. […] The XI(50) is the mole fraction of the inhibitor in the total substrate interface required to inhibit the enzyme activity by 50%. […] (ii) GVI iPLA2 substrate mixed-micelles were composed of 400 μM Triton X-100, 98.3 μM PAPC, and 1.7 μM ^14C-labeled PAPC in buffer containing 100 mM HEPES, pH 7.5, 2 mM ATP, and 4 mM DTT; (iii) GV sPLA2 substrate mixed-micelles were composed of 400 μM Triton X-100, 98.3 μM PAPC, and 1.7 μM ^14C-labeled PAPC in buffer containing 50 mMTris, pH 8.0, and 5 mM […] CaCl2.

human GIVA cPLA2 = target: T2, human GIVA cPLA2 (Homo sapiens, UniProt P47712); experiment: In vitro mixed micelle assay, GIVA cPLA2; type: biochemical; settings: for inhibition at 0.091 mole fraction: 0.091 mole fraction of inhibitor, read-out: GIVA cPLA2 % Inhib; for inhibition of GIVA cPLA2 (in words): mixed micelle assay, comment on Table 6
T2 sequence (P47712 1-749): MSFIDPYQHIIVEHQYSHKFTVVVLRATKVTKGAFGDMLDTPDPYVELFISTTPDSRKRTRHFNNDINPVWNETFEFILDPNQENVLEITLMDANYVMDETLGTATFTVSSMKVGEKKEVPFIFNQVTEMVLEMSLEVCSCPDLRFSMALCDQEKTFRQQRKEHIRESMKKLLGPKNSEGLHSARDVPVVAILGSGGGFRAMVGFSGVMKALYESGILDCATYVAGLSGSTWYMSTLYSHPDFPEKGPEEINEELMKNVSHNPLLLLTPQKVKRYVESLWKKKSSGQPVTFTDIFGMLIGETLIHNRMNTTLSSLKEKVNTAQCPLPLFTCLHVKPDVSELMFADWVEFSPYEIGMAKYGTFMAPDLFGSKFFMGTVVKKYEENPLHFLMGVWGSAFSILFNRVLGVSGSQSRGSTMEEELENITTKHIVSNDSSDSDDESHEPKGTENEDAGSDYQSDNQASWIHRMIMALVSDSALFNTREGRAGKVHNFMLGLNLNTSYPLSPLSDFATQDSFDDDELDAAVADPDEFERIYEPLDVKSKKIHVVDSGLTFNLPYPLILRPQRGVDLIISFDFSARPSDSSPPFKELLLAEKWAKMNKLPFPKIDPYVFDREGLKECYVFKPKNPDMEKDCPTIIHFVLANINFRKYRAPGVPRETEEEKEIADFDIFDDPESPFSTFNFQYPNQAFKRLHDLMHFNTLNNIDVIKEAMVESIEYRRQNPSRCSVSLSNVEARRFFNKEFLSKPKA
Description: as §1

[1] = system: OA release in SW982 cells; experiment: Ex vivo cellular oleic acid (OA) release assay, IL-1β stimulated; type: cell-based; settings: Homo sapiens; SW982 synoviocytes; 4 h IL-1β stimulation; % inhibition at 10 pM oxothiazole (so in the source); read-out: OA release % Inhib
Description: The effect of the oxothiazoles synthesized on the release of AA and OA in synoviocytes was evaluated as previously described.^54 The percent inhibition of AA and OA was determined at a 10 μM inhibitor concentration, while for the determination of the IC50 value the inhibitors were tested in a 0-20 μM range after IL-1β stimulation for 4 h.
The human synovial sarcoma cell line SW982 was from ATCC (UK) and was used as a model system to monitor AA/OA release and activation of GIVA cPLA2. SW982 cells were passaged bi-weekly by routine trypsin detachment and kept in a sub-confluent state. The cells were maintained in Dulbecco's Modified Eagle Medium (DMEM) supplemented with 10% FBS, 0.1 mg/mL gentamicin and 0.3 mg/mL L-glutamine at 37° C. with 10% CO2. For AA release, 5*10^5 cells were seeded pr well in a 48-well per plate format. Experiments were performed at 3 days post-confluency following overnight serum deprivation in serum-free DMEM to ensure differentiation and synchronization of the cells.
AA and OA release was analyzed as previously described.^54 At 2 days post-confluency, SW982 cells were serum-starved and labelled overnight with ^3H-AA (0.4 μCi/ml) and ^14C-OA (0.067 μCi/ml) in serum-free DMEM. Prior to the addition of oxothiazoles, the cells were washed twice with PBS containing fBSA (2 mg/ml) and PBS in order to remove unincorporated radioactivity. Cells were pretreated (1 h) with oxothiazoles prior to IL-1β stimulation (10 ng/mL, 4 h). Following IL-1β stimulation, the supernatants were cleared of detached cells by centrifugation (13000 rpm, 5 min). The release of ^3H-AA and ^14C-OA from the cells was assessed by liquid scintillation counting (LS 6500 Multi-Purpose Scintillation Counter, Beckman Coulter, Inc (USA). Adherent cells were dissolved in 1N NaOH in order to determine incorporated ^3H-AA and ^14C-OA in the cells by liquid scintillation counting. In all experiments, DMSO was included for vehicle control ([…]0.05%).
Following treatments, cells were routinely observed by microscopy to ensure unaltered cell morphology, integrity and viability. The results are given as inhibition of released ^3H-AA and ^14C-OA in the supernatants relative to total ^3H-AA and ^14C-OA incorporated into the cells, from at least three independent experiments performed in triplicates.

[2] = mixed micelles, mole fraction of inhibitor for 50% inhibition, Table 6

Row | Structure (SMILES) | inhibition at 0.091 mole fraction (human GVIA iPLA2) [%] | inhibition at 0.091 mole fraction (human GIVA cPLA2; mixed micelles, Table 6) [%] | inhibition at 10 µM [1] [%] | inhibition of GIVA cPLA2 (in words) (human GIVA cPLA2) | GIVA cPLA2 XI(50) (human GIVA cPLA2; [2]) | GVIA iPLA2 % Inhibition (human GVIA iPLA2; Tables 2 and 4) [%] | GIVA cPLA2 XI(50) (human GIVA cPLA2; Table 2, mole fraction of inhibitor in the total substrate interface for 50% inhibition) [mole fraction] | GIVA cPLA2 % Inhibition (human GIVA cPLA2; Tables 2 and 4) [%]
1 | CCCCCCCCCCCCOCC(=O)c1nc(C(=O)OCC)cs1 [Compound W, Ethyl 2-(2-(dodecyloxy)acetyl)thiazole-4-carboxylate] | 92 | 48 | 0 |  |  |  |  | 
2 | CCCCCCCCCCCCOCC(=O)c1nc(CC(=O)OCC)cs1 [Compound X, Ethyl 2-(2-(2-(dodecyloxy)acetyl)thiazol-4-yl)acetate] | 91 | 49 | 0 | proved inactive |  |  |  | 
3 | CCCCCCCCc1ccc(OCC(=O)c2nc(C(=O)OC)cs2)cc1 [Compound A, Methyl 2-(2-(4-octylphenoxy)acetyl)thiazole-4-carboxylate] | 86 | > 90 | 40 |  | 0.011 mole fraction and 0.011 ± 0.005 mole fraction | 86.4 | 0.011 | >90
4 | O=C(COc1ccccc1)c1nccs1 [Compound D, 2-Phenoxy-1-(thiazol-2-yl)ethanone] | 13 | 40 | 20 | did not present any interesting inhibition |  |  |  | 
5 | O=C(COc1ccc(-c2ccccc2)cc1)c1nccs1 [Compound B, 2-(Biphenyl-4-yloxy)-1-(thiazol-2-yl)ethanone] | 23 | 80 | 25 | did not present any interesting inhibition |  |  |  | 

Now from value to molecule, other results behind:

Row | inhibition at 0.091 mole fraction (human GVIA iPLA2) [%] | inhibition at 0.091 mole fraction (human GIVA cPLA2; mixed micelles, Table 6) [%] | Structure (SMILES) | inhibition at 10 µM [1] [%] | inhibition of GIVA cPLA2 (in words) (human GIVA cPLA2) | GIVA cPLA2 XI(50) (human GIVA cPLA2; [2]) | GVIA iPLA2 % Inhibition (human GVIA iPLA2; Tables 2 and 4) [%] | GIVA cPLA2 XI(50) (human GIVA cPLA2; Table 2, mole fraction of inhibitor in the total substrate interface for 50% inhibition) [mole fraction] | GIVA cPLA2 % Inhibition (human GIVA cPLA2; Tables 2 and 4) [%]
6 | 67 | > 90 | CCCCCCCCc1ccc(OCC(=O)c2nccs2)cc1 [Compound T, 2-(4-Octylphenoxy)-1-(thiazol-2-yl)ethanone] | 0 | significant inhibitory activity | 0.02 ± 0.007 mole fraction |  |  | 
7 | 5 | 58 | O=C(COc1ccc(F)cc1)c1nccs1 [Compound C, 2-(4-Fluorophenoxy)-1-(thiazol-2-yl)ethanone] | 25 | did not present any interesting inhibition |  |  |  | 
8 | 76 | 64 | CCCCCCCCc1ccc(OCC(=O)c2nc(CC(=O)OCC)cs2)cc1 [Compound Y, Ethyl 2-(2-(2-(4-octylphenoxy)acetyl)thiazol-4-yl)acetate] | 20 | dramatic loss of the activity |  |  |  | 
